Series [1] has as its system Candida albicans. The series is classed as functional, 0304103. The conditions noted are these: time 24 hrs.
Description: Synergetic antifungal activity against Candida albicans 0304103 assessed as fractional inhibitory concentration index incubated for 24 hrs in the presence of fluconazole by checkerboard microdilution method
Series [2] relates to Candida albicans. The series is described as follows: Antifungal activity against Candida albicans SC5314 assessed as fungal growth inhibition incubated for 24 hrs by broth dilution method. The series is classed as functional. (Dilution methods test growth across graded concentrations, often in twofold steps.)
Series [3] deals with HEL. The series is described as follows: Antiproliferative activity against human HEL cells incubated for 48 hrs by CCK8 assay. The series is classed as functional, cell-based. For orientation: Tetrazolium dyes change colour on reduction, which living cells bring about.
For series [4], the system named is Candida albicans. The series is described as follows: microbe, parasite or virus in culture. The series is classed as functional. The conditions noted are these: 0304103, time 24 hrs.
Description: Synergetic antifungal activity against Candida albicans 0304103 assessed as microbial growth inhibition incubated for 24 hrs in the presence of fluconazole by checkerboard microdilution method
In series [5] the test system is Cryptococcus neoformans. The series is described as follows: Antifungal activity against Cryptococcus neoformans H99 assessed as fungal growth inhibition incubated for 24 hrs by broth dilution method. Type of series: functional.
For series [6], the system named is K562. Briefly: Antiproliferative activity against human K562 cells incubated for 48 hrs by CCK8 assay. The series is classed as functional, cell-based. The note with it: K562, 48 h.
Series [7] deals with Candida albicans. Briefly: microbe, parasite or virus in culture. The series is classed as functional. The note with it: 0304103.
Description: Antifungal activity against Candida albicans 0304103 assessed as microbial growth inhibition
A short description of series [8]: in vitro. The conditions noted are these: human, HUVEC cells.
Description: Cytotoxicity against HUVECs assessed as inhibition of cell growth incubated for 48 hrs by CCK8 assay
Series [9] concerns the target Histone deacetylase. The series is described as follows: Inhibition of total HDAC in human HUVEC cells using Boc-Lys(Ac)-AMC as substrate preincubated for 12 hrs followed by substrate addition measured after 6 hrs by microtiter plate reader analysis. The series is classed as cell-based.
The target of series [10] is Histone deacetylase 1 (Homo sapiens, UniProt Q13547). The series is described as follows: Inhibition of full-length recombinant human HDAC1 (1 to 482 residues) expressed in baculovirus infected insect cells using […] as substrate incubated for 30 mins by fluorescence based analysis. Also on record: species or system Insect cell.
The subject of series [11] is HL-60. Briefly: Antiproliferative activity against human HL-60 cells incubated for 48 hrs by CCK8 assay. Type of series: functional, cell-based. The note with it: HL-60, 48 h.

These results are taken from ChEMBL document CHEMBL5331104, “Discovery of BRD4-HDAC Dual Inhibitors with Improved Fungal Selectivity and Potent Synergistic Antifungal Activity against Fluconazole-Resistant Candida albicans” (J Med Chem, 2023).

≈ marks a conversion by molar mass, not a printed value.

Sequence of Histone deacetylase 1 (Q13547 whole entry, the tested form may be a part): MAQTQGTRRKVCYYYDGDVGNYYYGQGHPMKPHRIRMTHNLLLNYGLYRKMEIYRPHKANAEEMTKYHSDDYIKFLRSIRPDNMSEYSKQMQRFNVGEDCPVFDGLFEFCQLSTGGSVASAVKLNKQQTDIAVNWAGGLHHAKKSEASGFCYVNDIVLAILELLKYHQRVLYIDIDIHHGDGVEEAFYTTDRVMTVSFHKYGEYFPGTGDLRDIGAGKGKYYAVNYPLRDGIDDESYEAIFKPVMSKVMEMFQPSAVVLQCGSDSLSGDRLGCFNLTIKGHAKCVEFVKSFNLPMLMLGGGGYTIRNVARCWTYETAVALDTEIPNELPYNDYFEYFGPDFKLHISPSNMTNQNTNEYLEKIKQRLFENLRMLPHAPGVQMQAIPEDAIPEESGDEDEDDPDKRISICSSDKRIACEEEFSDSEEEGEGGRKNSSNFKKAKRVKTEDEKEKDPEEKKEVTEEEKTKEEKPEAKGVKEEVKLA

Turning to `Cc1nnc2n1-c1ccc(Cl)cc1C(c1ccccc1Cl)=N[C@H]2CC(=O)NCc1ccc(C(=O)NO)cc1`, the “fractional inhibitory concentration index (FICI)” value in series [1] is on record as 0.16. The MIC80 in series [2] was > 64 µg/mL; in series [4], 8 µg/mL (≈ 14.6 µM); in series [5] it was 16 µg/mL (≈ 29.1 µM); in series [7] it was > 64 µg/mL. Moreover, the IC50 in [3] is > 10 µM; in series [6], > 10 µM; in series [9], 3.4 µM; in series [10], 1.9 µM; in [11], > 10 µM. In addition, in series [8], the IC50 at 48 h was found to be 48 µM.

In the case of `Cc1nnc2n1-c1ccccc1C(c1ccc(Cl)cc1)=N[C@H]2CC(=O)NCc1ccc(C(=O)NO)cc1`, the “fractional inhibitory concentration index (FICI)” value in series [1] came to 0.28. Besides, the MIC80 in series [2] was > 64 µg/mL; in series [4], 16 µg/mL (≈ 31.1 µM); in series [5] it was 32 µg/mL (≈ 62.1 µM); in [7], > 64 µg/mL. Moreover, the IC50 is > 10 µM in [3]; > 10 µM in series [6]; 2.7 µM in series [9]; 0.56 µM in series [10]; 7.1 µM in [11]. Further, in [8], the midpoint of inhibition, the IC50 at 48 h, lay at 23 µM.

Take `Cc1nnc2n1-c1ccccc1C(c1ccccc1)=N[C@H]2CC(=O)Nc1ccc(CC(=O)NO)cc1`: in series [1], the “fractional inhibitory concentration index (FICI)” value came to 0.19. In addition, the MIC80 in [2] is > 64 µg/mL; in [4] it was 8 µg/mL (≈ 16.6 µM); in [5], 32 µg/mL (≈ 66.6 µM); in [7], > 64 µg/mL. In addition, the IC50 in [3] was > 10 µM; in [6], > 10 µM; in [9], 6.5 µM; in series [10], 0.73 µM; in series [11] it was 4.4 µM. The compound further yielded an IC50 at 48 h in series [8] of 24 µM.

For the compound `Cc1nnc2n1-c1ccccc1C(c1ccc(Cl)cc1)=N[C@H]2CC(=O)Nc1ccc(/C=C/C(=O)NO)cc1`, in series [1], the “fractional inhibitory concentration index (FICI)” value is recorded as 0.066. Further, the MIC80 in series [2] is > 64 µg/mL; in [4], 4 µg/mL (≈ 7.59 µM); in series [5], 8 µg/mL (≈ 15.2 µM); in series [7] it was > 64 µg/mL. Moreover, the half-maximal inhibitory concentration (IC50) is > 10 µM in series [3]; 1.5 µM in series [6]; 0.42 µM in [9]; 0.63 µM in [10]; 4.7 µM in series [11]. Further, in series [8], the IC50 at 48 h came to 8.1 µM.

Turning to `Cc1nnc2n1-c1ccc(Cl)cc1C(c1ccccc1Cl)=N[C@H]2CC(=O)Nc1ccc(/C=C/C(=O)NO)cc1`, the “fractional inhibitory concentration index (FICI)” value in [1] is given as 0.07. Also, the MIC80 in [2] is > 64 µg/mL; in [4], 4 µg/mL (≈ 7.12 µM); in series [5], 8 µg/mL (≈ 14.2 µM); in series [7] it was > 64 µg/mL. Besides, the IC50 in series [3] turned out to be 8.3 µM; in series [6], 3.1 µM; in series [9] it was 0.035 µM; in [10], 1.3 µM; in series [11] it was 4.2 µM. For the same compound, the IC50 at 48 h in series [8] was found to be 7.3 µM.

Regarding `Cc1nnc2n1-c1ccccc1C(c1ccc(Cl)cc1)=N[C@H]2CC(=O)Nc1ccc(C(=O)NO)cc1`, the “fractional inhibitory concentration index (FICI)” value in series [1] worked out at 31. Further, the MIC80 was > 64 µg/mL in series [2], 16 µg/mL (≈ 31.9 µM) in series [4], 32 µg/mL (≈ 63.9 µM) in series [5] and > 64 µg/mL in series [7]. Also, the IC50 in [3] was > 10 µM; in series [6] it was > 10 µM; in series [9], 0.16 µM; in series [10], 0.11 µM; in [11], 0.87 µM. This compound showed a 50% inhibitory concentration (IC50) at 48 h in series [8] of 34 µM.

With `Cc1sc2c(c1C)C(c1ccc(Cl)cc1)=N[C@@H](CC(=O)OC(C)(C)C)c1nnc(C)n1-2`, the “fractional inhibitory concentration index (FICI)” value in series [1] was >2. For the same compound, the MIC80 in series [2] was > 64 µg/mL; in series [4] it was 64 µg/mL (≈ 140 µM); in series [5] it was > 64 µg/mL; in series [7], > 64 µg/mL. Further, the IC50 in [3] is 0.069 µM; in [6] it was 1.4 µM; in series [11], 0.15 µM. This compound displayed an IC50 at 48 h in [8] of 0.58 µM.

With `Cc1ccc(C2=N[C@@H](CC(=O)Nc3ccc(CC(=O)NO)cc3)c3nnc(C)n3-c3ccccc32)cc1`, the “fractional inhibitory concentration index (FICI)” value in series [1] turned out to be 0.14. Moreover, the MIC80 in series [2] is > 64 µg/mL; in series [4] it was 8 µg/mL (≈ 16.2 µM); in series [5], 32 µg/mL (≈ 64.7 µM); in series [7], > 64 µg/mL. Moreover, the IC50 in [3] was > 10 µM; in series [6] it was > 10 µM; in series [9] it was 3.8 µM; in [10] it was 2.9 µM; in [11], 5.1 µM. In addition, the IC50 at 48 h in [8] is 33 µM.

For the compound `Cc1nnc2n1-c1ccccc1C(c1ccccc1)=N[C@H]2CC(=O)NCc1ccc(C(=O)NO)cc1`, the “fractional inhibitory concentration index (FICI)” value in [1] is 0.14. The MIC80 was > 64 µg/mL in [2], 8 µg/mL (≈ 16.6 µM) in series [4], 32 µg/mL (≈ 66.6 µM) in series [5] and > 64 µg/mL in series [7]. Moreover, the IC50 in series [3] was > 10 µM; in [6] it was > 10 µM; in [9], 2.8 µM; in [10], 0.25 µM; in series [11], 5.7 µM. In series [8], this compound had an IC50 at 48 h of 17 µM.

In the case of `Cc1ccc(C2=N[C@@H](CC(=O)Nc3ccc(C(=O)NO)cc3)c3nnc(C)n3-c3ccccc32)cc1`, the “fractional inhibitory concentration index (FICI)” value in series [1] is listed as 0.078. The MIC80 is > 64 µg/mL in [2], 4 µg/mL (≈ 8.32 µM) in series [4], 32 µg/mL (≈ 66.6 µM) in series [5] and > 64 µg/mL in series [7]. Besides, the IC50 in series [3] was 0.39 µM; in [6], > 10 µM; in series [9] it was 0.13 µM; in [10], 51 µM; in [11], 0.34 µM. Also, the IC50 at 48 h in [8] stood at 2.8 µM.

In the case of `Cc1nnc2n1-c1sc3c(c1C(c1ccc(Cl)cc1)=N[C@H]2CC(=O)Nc1ccc(C(=O)NO)cc1)CCCC3`, the “fractional inhibitory concentration index (FICI)” value in series [1] is 0.078. The MIC80 in [2] was > 64 µg/mL; in series [4], 4 µg/mL (≈ 7.13 µM); in [5], 4 µg/mL (≈ 7.13 µM); in [7], > 64 µg/mL. For the same compound, the IC50 was found to be 0.29 µM in [3]; 0.41 µM in series [6]; 0.047 µM in series [9]; 0.72 µM in series [10]; 0.31 µM in series [11]. Further, the IC50 at 48 h in [8] worked out at 2.6 µM.

`Cc1nnc2n1-c1ccc(Cl)cc1C(c1ccccc1Cl)=N[C@H]2CC(=O)Nc1ccc(CC(=O)NO)cc1`: in [1], the “fractional inhibitory concentration index (FICI)” value stood at 0.14. Besides, the MIC80 in series [2] is > 64 µg/mL; in series [4], 8 µg/mL (≈ 14.6 µM); in [5], 16 µg/mL (≈ 29.1 µM); in series [7] it was > 64 µg/mL. Moreover, the IC50 is > 10 µM in [3]; 8 µM in series [6]; 4.4 µM in series [9]; 1.1 µM in series [10]; 9.7 µM in series [11]. This compound also yielded an IC50 at 48 h in series [8] of 19 µM.

Take `Cc1ccc(C2=N[C@@H](CC(=O)Nc3ccc(/C=C/C(=O)NO)cc3)c3nnc(C)n3-c3ccccc32)cc1`: the “fractional inhibitory concentration index (FICI)” value in [1] is reported as 0.094. Besides, the MIC80 in series [2] was > 64 µg/mL; in [4] it was 4 µg/mL (≈ 7.9 µM); in series [5], 8 µg/mL (≈ 15.8 µM); in series [7], > 64 µg/mL. The IC50 in series [3] stood at 9 µM; in series [6] it was 1.4 µM; in series [9] it was 0.63 µM; in [10], 0.18 µM; in series [11], 4.2 µM. For the same compound, it took 14 µM to reach half-maximal inhibition in [8] (IC50 at 48 h).

Usually IC50 stands for the concentration at which inhibition is half-maximal.
